≈ marks a conversion by molar mass, not a printed value.
Key:
Type in all cases: functional
[1] = system: Staphylococcus aureus; experiment: Antibacterial activity against methicillin-resistant Staphylococcus aureus N315 after 24 hrs by micro broth dilution assay; details: N315, 24 h
[2] = system: Escherichia coli; experiment: Antibacterial activity against Escherichia coli DH52 after 24 hrs by micro broth dilution assay; details: DH52, 24 h
[3] = system: Bacillus sp.; experiment: Antibacterial activity against Bacillus proteus ATCC 13315 after 24 hrs by micro broth dilution assay; details: Bacillus sp. (in: firmicutes), ATCC 13315, 24 h
[4] = system: Bacillus spizizenii; experiment: Antibacterial activity against Bacillus subtilis ATCC 6633 after 24 hrs by micro broth dilution assay; details: ATCC 6633, 24 h
[5] = system: Aspergillus flavus; experiment: Antifungal activity against Aspergillus flavus ATCC 204304 after 24 hrs by micro broth dilution assay; details: ATCC 204304, 24 h
[6] = Antibacterial activity against Eberthella typhosa ATCC 14028 after 24 hrs by micro broth dilution assay; details: ATCC 14028, 24 h
[7] = system: Saccharomyces cerevisiae; experiment: Antifungal activity against Beer yeast ATCC 9763 after 24 hrs by micro broth dilution assay; details: ATCC 9763, 24 h
[8] = system: Micrococcus luteus; experiment: Antibacterial activity against Micrococcus luteus ATCC 4698 after 24 hrs by micro broth dilution assay; details: ATCC 4698, 24 h
[9] = system: Candida; experiment: Antifungal activity against Candida mycoderma ATCC 9888 after 24 hrs by micro broth dilution assay; details: ATCC 9888, 24 h
[10] = system: Pseudomonas aeruginosa; experiment: Antibacterial activity against Pseudomonas aeruginosa ATCC 27853 a after 24 hrs by micro broth dilution assay; details: ATCC 27853, 24 h
[11] = system: Candida albicans; experiment: Antifungal activity against Candida albicans ATCC 10231 after 24 hrs by micro broth dilution assay; details: ATCC 10231, 24 h
[12] = system: Cyberlindnera jadinii; experiment: Antifungal activity against Candida utilis ATCC 9950 after 24 hrs by micro broth dilution assay; details: Williopsis jadinii, ATCC 9950, 24 h
[13] = system: Staphylococcus aureus; experiment: Antibacterial activity against Staphylococcus aureus ATCC 25923 after 24 hrs by micro broth dilution assay; details: ATCC 25923, 24 h
[14] = system: Bacillus spizizenii; experiment: Ratio of chloromycin MIC to compound MIC for Bacillus subtilis ATCC 6633

SMILES	MIC [1] [µM]	MIC [2] [µM]	MIC [3] [µM]	MIC [4] [µM]	MIC [5] [µM]	MIC [6] [µM]	MIC [7] [µM]	MIC [8] [µM]	MIC [9] [µM]	MIC [10] [µM]	MIC [11] [µM]	MIC [12] [µM]	MIC [13] [µM]	Ratio [14]
Cc1ncc([N+](=O)[O-])n1CCCCn1cnc2cc(F)ccc2c1=O	20 (≈ 6.91 µg/mL)	50 (≈ 17.3 µg/mL)	20 (≈ 6.91 µg/mL)	50 (≈ 17.3 µg/mL)	20 (≈ 6.91 µg/mL)	20 (≈ 6.91 µg/mL)	50 (≈ 17.3 µg/mL)	50 (≈ 17.3 µg/mL)	50 (≈ 17.3 µg/mL)	> 1480	20 (≈ 6.91 µg/mL)	50 (≈ 17.3 µg/mL)	50 (≈ 17.3 µg/mL)	–
O=c1c2ccc(Cl)cc2ncn1CCn1ccnc1	930 (≈ 255 µg/mL)	1860 (≈ 511 µg/mL)	1860 (≈ 511 µg/mL)	> 1860	930 (≈ 255 µg/mL)	> 1860	930 (≈ 255 µg/mL)	470 (≈ 129 µg/mL)	> 1860	930 (≈ 255 µg/mL)	930 (≈ 255 µg/mL)	470 (≈ 129 µg/mL)	> 1860	–
O=c1c2ccc(Cl)cc2ncn1CCCCCCCCCCn1cnc([N+](=O)[O-])c1	150 (≈ 64.8 µg/mL)	150 (≈ 64.8 µg/mL)	70 (≈ 30.2 µg/mL)	40 (≈ 17.3 µg/mL)	150 (≈ 64.8 µg/mL)	300 (≈ 130 µg/mL)	70 (≈ 30.2 µg/mL)	40 (≈ 17.3 µg/mL)	40 (≈ 17.3 µg/mL)	70 (≈ 30.2 µg/mL)	40 (≈ 17.3 µg/mL)	150 (≈ 64.8 µg/mL)	300 (≈ 130 µg/mL)	–
O=c1c2ccc(F)cc2ncn1CCCCCCBr	390 (≈ 128 µg/mL)	780 (≈ 255 µg/mL)	390 (≈ 128 µg/mL)	1560 (≈ 510 µg/mL)	1560 (≈ 510 µg/mL)	> 1560	780 (≈ 255 µg/mL)	390 (≈ 128 µg/mL)	> 1560	> 1560	780 (≈ 255 µg/mL)	390 (≈ 128 µg/mL)	> 1560	–
OC(Cn1cncn1)(Cn1cncn1)c1ccc(F)cc1F [FLUCONAZOLE]	> 1670	> 1670	> 1670	> 1670	840 (≈ 257 µg/mL)	> 1670	50 (≈ 15.3 µg/mL)	> 1670	10 (≈ 3.06 µg/mL)	> 1670	< 10	30 (≈ 9.19 µg/mL)	> 1670	–
Cc1ncc([N+](=O)[O-])n1CCCCCCCCCCn1cnc2cc(F)ccc2c1=O	20 (≈ 8.59 µg/mL)	20 (≈ 8.59 µg/mL)	20 (≈ 8.59 µg/mL)	20 (≈ 8.59 µg/mL)	40 (≈ 17.2 µg/mL)	20 (≈ 8.59 µg/mL)	20 (≈ 8.59 µg/mL)	40 (≈ 17.2 µg/mL)	20 (≈ 8.59 µg/mL)	> 1190	40 (≈ 17.2 µg/mL)	20 (≈ 8.59 µg/mL)	20 (≈ 8.59 µg/mL)	–
O=c1c2ccc(Cl)cc2ncn1CCCCCCBr	740 (≈ 254 µg/mL)	1490 (≈ 512 µg/mL)	740 (≈ 254 µg/mL)	1490 (≈ 512 µg/mL)	> 1490	> 1490	740 (≈ 254 µg/mL)	370 (≈ 127 µg/mL)	> 1490	> 1490	> 1490	740 (≈ 254 µg/mL)	> 1490	–
O=c1c2ccc(F)cc2ncn1CCCCCCn1cnc([N+](=O)[O-])c1	180 (≈ 64.7 µg/mL)	180 (≈ 64.7 µg/mL)	90 (≈ 32.3 µg/mL)	20 (≈ 7.19 µg/mL)	180 (≈ 64.7 µg/mL)	360 (≈ 129 µg/mL)	90 (≈ 32.3 µg/mL)	40 (≈ 14.4 µg/mL)	40 (≈ 14.4 µg/mL)	360 (≈ 129 µg/mL)	40 (≈ 14.4 µg/mL)	360 (≈ 129 µg/mL)	360 (≈ 129 µg/mL)	5
O=c1c2ccc(Cl)cc2ncn1CCn1cnc([N+](=O)[O-])c1	200 (≈ 63.9 µg/mL)	800 (≈ 256 µg/mL)	400 (≈ 128 µg/mL)	50 (≈ 16 µg/mL)	> 1600	400 (≈ 128 µg/mL)	200 (≈ 63.9 µg/mL)	50 (≈ 16 µg/mL)	800 (≈ 256 µg/mL)	> 1600	100 (≈ 32 µg/mL)	400 (≈ 128 µg/mL)	800 (≈ 256 µg/mL)	–

Reference: ChEMBL document CHEMBL3621068, “Synthesis and biological evaluation of a new class of quinazolinoneazoles as potential antimicrobial agents and their interactions with calf thymus DNA and human serum albumin” (Medchemcomm, 2015)
